Here are results for six compounds from patent US20240376097A1, “BCL-2 Inhibitor” (BeiGene Ltd., priority 2020, published 2024).

Read-outs that look alike come from different tables or passages of the source.

In series [1] the test system is RS4;11 (BCL-2 dependent acute lymphoblastic leukemia cell line). The experiment in a line: RS4;11 Cell Proliferation Assay. The following applies: Homo sapiens, read-out: Cellular proliferation assay (IC50, nM) RS4. Type of series: cell-based. The essentials: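 RS4;11 cells, 50,000 per well in RPMI-1640 with 10% FBS, treated 48 h at 37 °C with a 10-point dilution series topping at 1 μM. Viability read by CellTiter-Glo ATP luminescence; mean IC50 reported.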

Series [2] is described as follows: Metabolic Stability Study, liver microsome incubation (human). The following applies: human liver microsomes 0.5 mg/mL, 1 μM compound, NADPH; for microsomal CLint at 1 μM: read-out: CLint (μL × min^−1 × mg^−1) Human; for half-life at 1 μM: NA^# = very stable, beyond the detection limits, read-out: T1/2 (min) Human. Type of series: in vitro ADME. As to the method:
(§1) Biological Example: Metabolic Stability Study
(§2) The metabolic stability of some compounds was evaluated by using the liver microsome incubation system in vitro. Briefly, the test compounds at 1 μM, were incubated with 0.5 mg/mL liver microsomes from different species (human, dog, rat and mouse) with an NADPH regenerating system at 37° C. Samples were quenched at three time points (0, 30, 60 min) with organic solvent containing internal standards, and the supernatant was analyzed for parent loss via LC-MS/MS. Midazolam was used as the positive control to validate the incubation system.
(§3) where Cprotein is the microsomal protein concentration in the incubation system.
(§4) The value of CLint and T1/2 of Example F132b in WO2019210818 and representative compounds of the disclosure were determined, and the results are shown in Table 5.

Series [3] has as its system BCL-2 G101V knock-in cell line H96 (derive from RS4;11). Nature of the series: Bcl 2-G101V Knock-In RS4;11 Cell Proliferation Assay. The note with it: Homo sapiens, RS4;11 Bcl-2 G101V knock-in clone H96, 48 hrs, CellTiter-GLO, read-out: Cellular proliferation assay (IC50, nM) RS4. It counts as cell-based. The method in brief:
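H96, a CRISPR-generated RS4;11 clone carrying BCL2-G101V knock-in (WES/RNA-seq validated), seeded 50,000 per well and exposed 48 h at 37 °C to 10-point dilutions topping at 1 or 10 μM. Viability by CellTiter-Glo luminescence; mean IC50.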
Background: Cellular ATP, detected with luciferase, serves as a proxy for viable cell number.

Series [4] can be described thus: Metabolic Stability Study, liver microsome incubation (mouse). The following applies: mouse liver microsomes 0.5 mg/mL, 1 μM compound, NADPH; for microsomal CLint at 1 μM: read-out: CLint (μL × min^−1 × mg^−1) mouse; for half-life at 1 μM: NA^# = very stable, beyond the detection limits, read-out: T1/2 (min) mouse. It counts as in vitro ADME. As to the method:
as §1, §2, §3, §4
(Microsomes from liver hold many membrane-bound enzymes, among them those of drug oxidation.)

Series [5] addresses recombinant human Bcl-2 D103Y protein (Homo sapiens (Human), UniProt P10415, D103Y). The experiment in a line: Bcl-2-D103Y Biochemical Assay (TR-FRET). Type of series: binding. The note with it: for IC50: TR-FRET, FITC labeled Bak peptide; for Ratio of Bcl-2 D103Y/Bcl-2 WT: ratio of IC50. The method in brief:
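Recombinant human Bcl-2 D103Y binding to its ligand measured by TR-FRET (ex 337 nm, em 490/520 nm) with increasing compound concentrations. Percent inhibition from the 490/520 nm ratio; IC50 from four-parameter logistic fit.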
Background: TR-FRET usually uses a lanthanide donor and a delayed reading to cut background.

The target in series [6] is Recombinant human Bcl-2 protein (Homo sapiens (Human), UniProt P10415). The experiment in a line: Bcl-2 TR-FRET Assay. Type of series: binding. The method in brief: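 0.05 nM recombinant Bcl-2 preincubated 0.5 h at room temperature with 10-point compound dilutions (top final 1, 0.1, 0.02 or 0.01 uM) in pH 7.5 phosphate buffer. FITC-Bak peptide (0.5 nM) and anti-6His Tb cryptate then added for 1 h. TR-FRET read; IC50 from four-parameter logistic fit.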

For series [7], the target named is recombinant human Bcl-2-G101V protein (Homo sapiens (Human), UniProt P10415, G101V). Nature of the series: Bcl-2-G101V TR-FRET Assay. It counts as binding. The following applies: Bcl-2 G101V mutant, TR-FRET; read-out: Biochemical assay (IC50, nM) Bcl-2 G101V. The method in brief: (§5)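 Ex337/em490 & 520 nm TR-FRET; % inhibition of Bcl-2-G101V–ligand interaction from 490:520 ratio vs. increasing compound conc.; IC50 by 4-parameter logistic fit.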

The subject of series [8] is recombinant human Bcl-2-G101V protein. The experiment in a line: Bcl-2-G101V TR-FRET Assay. Type of series: binding. The following applies: ratio of biochemical IC50 Bcl-2 G101V / Bcl-2 WT. The method in brief:
as §5

The mark [9] stands for this setting: wild type Bcl-2, unit inferred, read-out: Bcl-2 WT.

Turning to `CC(C)c1ccccc1[C@@H]1CN(Cc2ccc(OC3CC3)c(OC3CC3)c2)CCN1C1CC2(C1)CN(c1ccc(C(=O)NS(=O)(=O)c3ccc(NC[C@H]4CC[C@](C)(O)CC4)c([N+](=O)[O-])c3)c(Oc3cnc4[nH]cc(F)c4c3)c1)C2` [Example 363, 4-(6-((R)-4-(3,4-dicyclopropoxybenzyl)-2-(2-isopropylphenyl)piperazin-1-yl)-2-azaspiro[3.3]heptan-2-yl)-2-((3-fluoro-1H-pyrrolo[2,3-b]pyridin-5-yl)oxy)-N-((4-((((1r,4r)-4-hydroxy-4-methylcyclohexyl)methyl)amino)-3-nitrophenyl)sulfonyl) benzamide], the IC50 in series [1] (RS4;11 cells) came to 0.11 nM; in series [3] (RS4-11, 48 h) it was 0.14 nM. Besides, the microsomal CLint at 1 μM in series [2] and in series [4] was < 1 µL/min/mg each time.

As to `COc1cc(CN2CCN(C3CC4(CCN(c5ccc(C(=O)NS(=O)(=O)c6ccc(NC[C@H]7CC[C@](C)(O)CC7)c([N+](=O)[O-])c6)c(Oc6cnc7[nH]ccc7c6)c5)CC4)C3)C(c3ccccc3C(C)C)C2)cc(OC)c1` (some centres unmarked) [Example 49], the IC50 stood at 0.49 nM in series [1] (RS4;11 cells) and 2.4 nM in series [3] (RS4-11, 48 h). Moreover, the half-life at 1 μM is 93.4 min in series [2] and 205 min in series [4]. Moreover, the microsomal CLint at 1 μM in series [2] was 14.8 µL/min/mg; in series [4] it was 6.7 µL/min/mg.

As for `CC(C)c1ccccc1C1CC(Cc2ccccc2)CCN1C1CC2(CCN(c3ccc(C(=O)NS(=O)(=O)c4ccc(NC[C@H]5CC[C@](C)(O)CC5)c([N+](=O)[O-])c4)c(Oc4cnc5[nH]ccc5c4)c3)CC2)C1` (some centres unmarked) [Example 67, 2-((1H-pyrrolo[2,3-b]pyridin-5-yl)oxy)-4-(2-(4-benzyl-2-(2-isopropylphenyl)piperidin-1-yl)-7-azaspiro[3.5]nonan-7-yl)-N-((4-((((1r,4r)-4-hydroxy-4-methylcyclohexyl)methyl)amino)-3-nitrophenyl)sulfonyl)benzamide], in series [2], the half-life at 1 μM was determined as 309 min and the microsomal CLint at 1 μM was found to be 4.5 µL/min/mg. Moreover, in series [4], the half-life at 1 μM turned out to be 272 min and the microsomal CLint at 1 μM amounted to 5.1 µL/min/mg.

As for `COc1ccc(CN2CCN(C3CC4(CCN(c5ccc(C(=O)NS(=O)(=O)c6ccc(NC[C@H]7CC[C@](C)(O)CC7)c([N+](=O)[O-])c6)c(Oc6cnc7[nH]ccc7c6)c5)CC4)C3)C(c3ccccc3C(C)C)C2)cc1` (some centres unmarked) [Example 19, 2-((1H-pyrrolo[2,3-b]pyridin-5-yl)oxy)-N-((4-((((1r,4r)-4-hydroxy-4-methylcyclohexyl)methyl)amino)-3-nitrophenyl)sulfonyl)-4-(2-(2-(2-isopropylphenyl)-4-(4-methoxybenzyl)piperazin-1-yl)-7-azaspiro[3.5]nonan-7-yl)benzamide], the IC50 is 0.33 nM in series [1] (RS4;11 cells) and 1.9 nM in series [3] (RS4-11, 48 h). Besides, the figures for the half-life at 1 μM in series [2] and in series [4] were 1230 min and 292 min, respectively. The microsomal CLint at 1 μM in series [2] stood at 1.1 µL/min/mg; in series [4] it was 4.7 µL/min/mg.

In the case of `COc1ccc(CN2CCN(C3CC4(CCN(c5ccc(C(=O)NS(=O)(=O)c6ccc(NC[C@H]7COCCO7)c([N+](=O)[O-])c6)c(Oc6cnc7[nH]ccc7c6)c5)CC4)C3)[C@H](c3ccccc3C(C)C)C2)cc1` (single isomer, unassigned) [Example 33, N-((4-((((S)-1,4-dioxan-2-yl)methyl)amino)-3-nitrophenyl)sulfonyl)-2-((1H-pyrrolo[2,3-b]pyridin-5-yl)oxy)-4-(2-((R or S)-2-(2-isopropylphenyl)-4-(4-methoxybenzyl)piperazin-1-yl)-7-azaspiro[3.5]nonan-7-yl)benzamide], in series [2], the half-life at 1 μM is 1820 min and the microsomal CLint at 1 μM is 0.8 µL/min/mg. Moreover, in series [5], the IC50 is 0.094 nM and the “Ratio of Bcl-2 D103Y/Bcl-2 WT” value is reported as 2.5. In series [4], the half-life at 1 μM came to 233 min and the microsomal CLint at 1 μM is 5.9 µL/min/mg. Moreover, the IC50 in series [6] (setting [9]) stood at 0.038 nM.

On to `COc1ccc(C(=O)N2CCN(C3CC4(C3)CN(c3ccc(C(=O)NS(=O)(=O)c5ccc(NC[C@H]6CC[C@](C)(O)CC6)c([N+](=O)[O-])c5)c(Oc5cnc6[nH]cc(F)c6c5)c3)C4)[C@H](c3ccccc3C(C)C)C2)cc1` [Example 353], for which the IC50 in series [7] worked out at 0.25 nM; in series [1] (RS4-11, RS4;11 cells), 0.2 nM; in series [3], 0.64 nM; in series [5] it was 0.12 nM; in series [6] (Bcl-2 wild type, TR-FRET, read-out: Biochemical assay (IC50, nM) Bcl-2 WT) it was 0.077 nM; in series [6] (setting [9]), 0.07 nM. In series [8], the “Ratio of Bcl-2 G101V/WT” value came to 3.3. Further, in series [5], the “Ratio of Bcl-2 D103Y/Bcl-2 WT” value was 1.5.
